Data: PubChem BioAssay (NCI)
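Method: 48-hour compound exposure of cells in 96-well plates, five concentrations, linear interpolation of endpoints. Definition used: TGI = concentration required for complete inhibition of growth.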

How the values were obtained:
Test in all cases: DTP human tumour cell line panel, 48 h
UACC-257 melanoma = tested on: UACC-257 melanoma
NCI-H226 lung = tested on: NCI-H226 lung
RPMI-8226 leukemia = tested on: RPMI-8226 leukemia
PC-3 prostate = tested on: PC-3 prostate
KM12 colon = tested on: KM12 colon
OVCAR-3 ovarian = tested on: OVCAR-3 ovarian
SNB-75 CNS = tested on: SNB-75 CNS
K-562 leukemia = tested on: K-562 leukemia
A498 renal = tested on: A498 renal
CCRF-CEM leukemia = tested on: CCRF-CEM leukemia
SF-268 CNS = tested on: SF-268 CNS
SK-MEL-2 melanoma = tested on: SK-MEL-2 melanoma
M14 melanoma = tested on: M14 melanoma
NCI/ADR-RES ovarian = tested on: NCI/ADR-RES ovarian
SK-MEL-28 melanoma = tested on: SK-MEL-28 melanoma
HT29 colon = tested on: HT29 colon
UACC-62 melanoma = tested on: UACC-62 melanoma
SF-539 CNS = tested on: SF-539 CNS
786-0 renal = tested on: 786-0 renal
HCT-15 colon = tested on: HCT-15 colon
U251 CNS = tested on: U251 CNS
SN12C renal = tested on: SN12C renal
MCF7 breast = tested on: MCF7 breast
TK-10 renal = tested on: TK-10 renal
BT-549 breast = tested on: BT-549 breast
IGROV1 ovarian = tested on: IGROV1 ovarian
CAKI-1 renal = tested on: CAKI-1 renal
NCI-H23 lung = tested on: NCI-H23 lung
RXF 393 renal = tested on: RXF 393 renal
T-47D breast = tested on: T-47D breast
COLO 205 colon = tested on: COLO 205 colon
MDA-N = tested on: MDA-N
MDA-MB-231 breast = tested on: MDA-MB-231 breast
DU-145 prostate = tested on: DU-145 prostate
NCI-H522 lung = tested on: NCI-H522 lung
NCI-H460 lung = tested on: NCI-H460 lung
MOLT-4 leukemia = tested on: MOLT-4 leukemia
OVCAR-5 ovarian = tested on: OVCAR-5 ovarian
A549 NSCLC = tested on: A549 NSCLC
MDA-MB-435 = tested on: MDA-MB-435
SNB-19 CNS = tested on: SNB-19 CNS
SK-MEL-5 melanoma = tested on: SK-MEL-5 melanoma
SK-OV-3 ovarian = tested on: SK-OV-3 ovarian
SW-620 colon = tested on: SW-620 colon
HCT-116 colon = tested on: HCT-116 colon
SF-295 CNS = tested on: SF-295 CNS
OVCAR-8 ovarian = tested on: OVCAR-8 ovarian
HL-60(TB) leukemia = tested on: HL-60(TB) leukemia
OVCAR-4 ovarian = tested on: OVCAR-4 ovarian
ACHN renal = tested on: ACHN renal
HOP-62 NSCLC = tested on: HOP-62 NSCLC
LOX IMVI melanoma = tested on: LOX IMVI melanoma
EKVX NSCLC = tested on: EKVX NSCLC
HOP-92 NSCLC = tested on: HOP-92 NSCLC
MALME-3M melanoma = tested on: MALME-3M melanoma
SR leukemia = tested on: SR leukemia
HCC-2998 colon = tested on: HCC-2998 colon

Measured: TGI

CCOP(=O)(/C=C/n1ccc(=O)[nH]c1=O)OCC
not listed: HOP-92 NSCLC | MALME-3M melanoma | SR leukemia | HCC-2998 colon
> 100 µM: all other assays above

CC(=O)/C=C/CCC(=O)/C=C/C(=O)OC(CCC(=O)/C=C/C(=O)O)CC(C)=O (centres undefined)
not listed: SNB-75 CNS | A498 renal | SK-MEL-2 melanoma | CAKI-1 renal | SK-OV-3 ovarian | LOX IMVI melanoma
> 100 µM: all other assays above
